Results reported in patent US20240216440A1, “STRING-LIKE AGGREGATES OF RETINAL PIGMENT EPITHELIAL CELLS, DEVICE AND PRODUCTION METHOD FOR PRODUCING SAME, AND THERAPEUTIC AGENT COMPRISING SAID STRING-LIKE AGGREGATES” (RIKEN, priority 2021, published 2024).
“Also recorded” adds a separate entry of the source.

Assays:
Format in all cases: cell-based, human
[1] = test system: hiPSC-RPE cells (201B7modFucci line); assay: Adhesion/expansion assay of plated string-like aggregates, 201B7modFucci line
Protocol: The string-like aggregates were released from the grooves of the device, and the string-like aggregates were seeded onto an uncoated 24-well plate (Corning Incorporated) containing the mix medium. After adhesion of the string-like aggregates (2 to 3 days later), the medium was replaced with RPE maintenance medium (containing bFGF and SB431542). The dishes under culture were photographed using the IncuCyte Zoom system (Essen BioScience). From the obtained image data, expanded cells were manually marked using Fiji, and the expanded area was measured. The present inventors tested whether another hiPSC line could similarly form string-like aggregates. The present inventors used the 201B7modFucci line to induce RPE differentiation and compared it with hiPSC(M8)-RPE. hiPSC(201B7modFucci)-RPE also formed string-like aggregates like hiPSC(M8)-RPE, but the 201B7modFucci line required a Y-27632 concentration of 5 μM or higher to stably form string-like aggregates (FIG. 15-1A). The optimal Y-27632 concentration for adhesion/expansion assays was 5 μM for hiPSC(201B7modFucci)-string-like aggregates, and the optimal Y-27632 concentration for the desired adhesion/expansion effect varied depending on the cell line used and required optimization (FIGS. 14D and E). […]

[2] = test system: hiPSC-RPE cells (M8 line); assay: Adhesion and expansion of plated string-like aggregates on uncoated 24-well plate, M8 line; conditions: for adhesion to plate and expansion of string-like aggregates: uncoated wells
Protocol: The string-like aggregates were released from the grooves of the device, and the string-like aggregates were seeded onto an uncoated 24-well plate (Corning Incorporated) containing the mix medium. After adhesion of the string-like aggregates (2 to 3 days later), the medium was replaced with RPE maintenance medium (containing bFGF and SB431542). The dishes under culture were photographed using the IncuCyte Zoom system (Essen BioScience). From the obtained image data, expanded cells were manually marked using Fiji, and the expanded area was measured. In the present inventors' preliminary experiment (FIG. 14A), higher concentrations of Y-27632 appeared to affect the texture of the string-like aggregates to become tighter. […] The string-like aggregates on day 2 (FIGS. 13D and E) and day 3 (FIGS. 13F and G) were then used to compare cell expansion after plating in uncoated wells between string-like aggregates formed with 2.5 and 10 μM Y-27632.

hiPSC-RPEs (M8 line) = assay: String-like aggregate formation under different Y-27632 concentrations, M8 line; conditions: for appearance of string-like aggregates: day 2
Protocol: After thawing, hiPSC-RPE cells were cultured for 2 weeks, the cells were collected, and seeded in the number described in each experiment into each groove of the PDMS-based culture device, using 15 μl RPE maintenance medium containing the optimal concentration of Y-27632 (concentrations indicated for each experiment). In the present inventors' preliminary experiment (FIG. 14A), higher concentrations of Y-27632 appeared to affect the texture of the string-like aggregates to become tighter. […] Next, the present inventors directly compared string-like aggregates made with either 2.5 μM or 10 μM of Y-27632 (FIGS. 13B-G). […] On the other hand, string-like aggregates formed with 10 μM Y-27632 appeared more dense (FIG. 13B).

C[C@@H](N)[C@H]1CC[C@H](C(=O)Nc2ccncc2)CC1 [Y-27632]
adhesiveness of string-like aggregates to the plate ([1]; aggregates added with 2-2.5 μM Y-27632, 201B7modFucci line, day 2 aggregates, 24-well plate): consistently adherent to the plate | optimal Y-27632 concentration for adhesion/expansion assays ([1]; hiPSC(201B7modFucci)-string-like aggregates): 5 µM | adhesiveness of string-like aggregates to the plate ([2]; aggregates added with 2-2.5 μM Y-27632, M8 line, day 2 aggregates, 24-well plate): highest adhesiveness to the plate | adhesion to plate and expansion of string-like aggregates ([2]; aggregates formed with 2.5 μM Y-27632, compared with 10 μM, day 2 and day 3 aggregates): tended to attach to the plate and begin to expand early after placing; also recorded: higher adhesiveness to the plate, covered more area, and began to expand faster on the plate | adhesion to plate and expansion of string-like aggregates ([2]; aggregates formed with 10 μM Y-27632): expansion was delayed; also recorded: tended to be coil-like and moved around for several days before settling and starting to expand | string-like aggregate formation (hiPSC-RPEs (M8 line); M8 line, 0 and 1 μM Y-27632): not successfully formed | Y-27632 concentration at which hiPSC-RPEs were able to form string-like aggregate shape (hiPSC-RPEs (M8 line); M8 line, tested 0, 1, 2, 2.5 and 10 μM): above 2 μM | appearance of string-like aggregates (hiPSC-RPEs (M8 line); formed with 2.5 μM Y-27632): flat and loose | appearance of string-like aggregates (hiPSC-RPEs (M8 line); formed with 10 μM Y-27632): more dense
